Results from US10131652B2, “Pyrimidinyloxy benzene derivatives as herbicides” (E. I. DU PONT DE NEMOURS AND COMPANY, priority 2014, dated 2018).
Read-outs that look alike come from different tables or passages of the source.

Experiments:
Experiment in all cases: Test E pre-/postemergence plant response
Format in all cases: in vivo
[1] = tested on: winter barley (Hordeum vulgare); details: post-emergence, Postemergence, scale 0 to 100, read-out: Plant response rating, Barley, Winter
Outline: (§1)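 Visual scores on a 0–100 scale (100 = complete control) were assigned against untreated controls 7–21 days after treatment in a controlled environment. Compounds, formulated with solvent plus surfactant, were applied to pre-emergence silt-loam sowings or to 1- to 4-leaf plants (2–18 cm) in potting medium.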

[2] = tested on: speedwell (bird's-eye speedwell, Veronica persica); details: scale 0 to 100, read-out: Plant response rating, Speedwell; for pest or weed control at 16 g/ha: 16 g ai/ha; for pest or weed control at 62 g/ha: 62 g ai/ha; for pest or weed control at 125 g/ha: 125 g ai/ha
Outline: as §1

[3] = tested on: chickweed (common chickweed, Stellaria media); details: scale 0 to 100, read-out: Plant response rating, Chickweed; for pest or weed control at 16 g/ha: 16 g ai/ha; for pest or weed control at 31 g/ha: 31 g ai/ha; for pest or weed control at 62 g/ha: 62 g ai/ha; for pest or weed control at 125 g/ha: 125 g ai/ha
Outline: as §1

[4] = tested on: windgrass (Apera spica-venti); details: scale 0 to 100, read-out: Plant response rating, Windgrass; for pest or weed control at 16 g/ha: 16 g ai/ha; for pest or weed control at 62 g/ha: 62 g ai/ha; for pest or weed control at 125 g/ha: 125 g ai/ha
Outline: as §1

[5] = tested on: spring barley (Hordeum vulgare); details: post-emergence, Postemergence
Outline: as §1

[6] = tested on: field poppy (Papaver rhoeas); details: scale 0 to 100, read-out: Plant response rating, Field Poppy; for pest or weed control at 16 g/ha: 16 g ai/ha; for pest or weed control at 31 g/ha: 31 g ai/ha; for pest or weed control at 62 g/ha: 62 g ai/ha; for pest or weed control at 125 g/ha: 125 g ai/ha
Outline: as §1

kochia (Kochia scoparia) = details: Bassia scoparia, scale 0 to 100, read-out: Plant response rating, Kochia; for pest or weed control at 16 g/ha: 16 g ai/ha; for pest or weed control at 31 g/ha: 31 g ai/ha; for pest or weed control at 62 g/ha: 62 g ai/ha; for pest or weed control at 125 g/ha: 125 g ai/ha
Outline: as §1

[7] = tested on: canarygrass (Phalaris minor); details: scale 0 to 100, read-out: Plant response rating, Canarygrass; for pest or weed control at 16 g/ha: 16 g ai/ha; for pest or weed control at 31 g/ha: 31 g ai/ha; for pest or weed control at 62 g/ha: 62 g ai/ha; for pest or weed control at 125 g/ha: 125 g ai/ha
Outline: as §1

[8] = tested on: downy bromegrass (Bromus tectorum); details: scale 0 to 100, read-out: Plant response rating, Bromegrass, Downy; for pest or weed control at 16 g/ha: 16 g ai/ha; for pest or weed control at 31 g/ha: 31 g ai/ha; for pest or weed control at 62 g/ha: 62 g ai/ha; for pest or weed control at 125 g/ha: 125 g ai/ha
Outline: as §1

[9] = tested on: pigweed (Amaranthus retroflexus); details: scale 0 to 100, read-out: Plant response rating, Pigweed; for pest or weed control at 16 g/ha: 16 g ai/ha; for pest or weed control at 31 g/ha: 31 g ai/ha; for pest or weed control at 62 g/ha: 62 g ai/ha; for pest or weed control at 125 g/ha: 125 g ai/ha
Outline: as §1

[10] = tested on: wild buckwheat (Polygonum convolvulus); details: Fallopia convolvulus, scale 0 to 100, read-out: Plant response rating, Buckwheat, Wild; for pest or weed control at 16 g/ha: 16 g ai/ha; for pest or weed control at 31 g/ha: 31 g ai/ha; for pest or weed control at 62 g/ha: 62 g ai/ha; for pest or weed control at 125 g/ha: 125 g ai/ha
Outline: as §1

[11] = post-emergence, 31 g ai/ha, Postemergence

FC(F)(F)c1cc(-c2ccccc2Oc2ncc(Cl)cn2)no1 [Compound 200, 5-chloro-2-[2-[5-(trifluoromethyl)-3-isoxazolyl]phenoxy]pyrimidine]
plant injury at 16 g/ha ([1]; 16 g ai/ha): 5% | plant injury at 31 g/ha ([1]; 31 g ai/ha): 10% | plant injury at 62 g/ha ([1]; 62 g ai/ha): 20% | plant injury at 125 g/ha ([1]; 125 g ai/ha): 25% | pest or weed control at 16 g/ha ([2]; post-emergence, Postemergence): 70% | pest or weed control at 31 g/ha [2, 11]: 100% | pest or weed control at 62 g/ha ([2]; post-emergence, Postemergence): 100% | pest or weed control at 125 g/ha ([2]; post-emergence, Postemergence): 100% | pest or weed control at 16 g/ha ([2]; pre-emergence, Preemergence): 100% | pest or weed control at 62 g/ha ([2]; pre-emergence, Preemergence): 100% | pest or weed control at 125 g/ha ([2]; pre-emergence, Preemergence): 100% | pest or weed control at 16 g/ha ([3]; post-emergence, Postemergence): 65% | pest or weed control at 31 g/ha ([3]; post-emergence, Postemergence): 75% | pest or weed control at 62 g/ha ([3]; post-emergence, Postemergence): 100% | pest or weed control at 125 g/ha ([3]; post-emergence, Postemergence): 100% | pest or weed control at 16 g/ha ([3]; pre-emergence, Preemergence): 70% | pest or weed control at 31 g/ha ([3]; pre-emergence, Preemergence): 90% | pest or weed control at 62 g/ha ([3]; pre-emergence, Preemergence): 100% | pest or weed control at 125 g/ha ([3]; pre-emergence, Preemergence): 100% | pest or weed control at 16 g/ha ([4]; post-emergence, Postemergence): 10% | pest or weed control at 31 g/ha [4, 11]: 20% | pest or weed control at 62 g/ha ([4]; post-emergence, Postemergence): 35% | pest or weed control at 125 g/ha ([4]; post-emergence, Postemergence): 45% | pest or weed control at 16 g/ha ([4]; pre-emergence, Preemergence): 15% | pest or weed control at 62 g/ha ([4]; pre-emergence, Preemergence): 100% | pest or weed control at 125 g/ha ([4]; pre-emergence, Preemergence): 100% | plant injury at 16 g/ha ([5]; 16 g ai/ha, scale 0 to 100, read-out: Plant response rating, Barley, Spring): 10% | plant injury at 31 g/ha ([5]; 31 g ai/ha, scale 0 to 100, read-out: Plant response rating, Barley, Spring): 15% | plant injury at 62 g/ha ([5]; 62 g ai/ha, scale 0 to 100, read-out: Plant response rating, Barley, Spring): 25% | plant injury at 125 g/ha ([5]; 125 g ai/ha, scale 0 to 100 (0 no effect, 100 complete control), read-out: Plant response rating, Barley, Spring): 35% | pest or weed control at 16 g/ha ([6]; post-emergence, Postemergence): 75% | pest or weed control at 31 g/ha ([6]; post-emergence, Postemergence): 80% | pest or weed control at 62 g/ha ([6]; post-emergence, Postemergence): 100% | pest or weed control at 125 g/ha ([6]; post-emergence, Postemergence): 100% | pest or weed control at 16 g/ha ([6]; pre-emergence, Preemergence): 80% | pest or weed control at 31 g/ha ([6]; pre-emergence, Preemergence): 90% | pest or weed control at 62 g/ha ([6]; pre-emergence, Preemergence): 95% | pest or weed control at 125 g/ha ([6]; pre-emergence, Preemergence): 95% | pest or weed control at 16 g/ha (kochia (Kochia scoparia); post-emergence, Postemergence): 70% | pest or weed control at 31 g/ha (kochia (Kochia scoparia); post-emergence, Postemergence): 85% | pest or weed control at 62 g/ha (kochia (Kochia scoparia); post-emergence, Postemergence): 85% | pest or weed control at 125 g/ha (kochia (Kochia scoparia); post-emergence, Postemergence): 90% | pest or weed control at 16 g/ha (kochia (Kochia scoparia); pre-emergence, Preemergence): 70% | pest or weed control at 31 g/ha (kochia (Kochia scoparia); pre-emergence, Preemergence): 100% | pest or weed control at 62 g/ha (kochia (Kochia scoparia); pre-emergence, Preemergence): 100% | pest or weed control at 125 g/ha (kochia (Kochia scoparia); pre-emergence, Preemergence): 100% | pest or weed control at 16 g/ha ([7]; post-emergence, Postemergence): 10% | pest or weed control at 31 g/ha ([7]; post-emergence, Postemergence): 35% | pest or weed control at 62 g/ha ([7]; post-emergence, Postemergence): 45% | pest or weed control at 125 g/ha ([7]; post-emergence, Postemergence): 60% | pest or weed control at 16 g/ha ([7]; pre-emergence, Preemergence): 10% | pest or weed control at 31 g/ha ([7]; pre-emergence, Preemergence): 55% | pest or weed control at 62 g/ha ([7]; pre-emergence, Preemergence): 100% | pest or weed control at 125 g/ha ([7]; pre-emergence, Preemergence): 100% | pest or weed control at 16 g/ha ([8]; post-emergence, Postemergence): 5% | pest or weed control at 31 g/ha ([8]; post-emergence, Postemergence): 10% | pest or weed control at 62 g/ha ([8]; post-emergence, Postemergence): 25% | pest or weed control at 125 g/ha ([8]; post-emergence, Postemergence): 35% | pest or weed control at 16 g/ha ([8]; pre-emergence, Preemergence): 10% | pest or weed control at 31 g/ha ([8]; pre-emergence, Preemergence): 35% | pest or weed control at 62 g/ha ([8]; pre-emergence, Preemergence): 45% | pest or weed control at 125 g/ha ([8]; pre-emergence, Preemergence): 80% | pest or weed control at 16 g/ha ([9]; post-emergence, Postemergence): 85% | pest or weed control at 31 g/ha ([9]; post-emergence, Postemergence): 90% | pest or weed control at 62 g/ha ([9]; post-emergence, Postemergence): 90% | pest or weed control at 125 g/ha ([9]; post-emergence, Postemergence): 90% | pest or weed control at 16 g/ha ([9]; pre-emergence, Preemergence): 100% | pest or weed control at 31 g/ha ([9]; pre-emergence, Preemergence): 100% | pest or weed control at 62 g/ha ([9]; pre-emergence, Preemergence): 100% | pest or weed control at 125 g/ha ([9]; pre-emergence, Preemergence): 100% | pest or weed control at 16 g/ha ([10]; post-emergence, Postemergence): 65% | pest or weed control at 31 g/ha ([10]; post-emergence, Postemergence): 70% | pest or weed control at 62 g/ha ([10]; post-emergence, Postemergence): 95% | pest or weed control at 125 g/ha ([10]; post-emergence, Postemergence): 100% | pest or weed control at 16 g/ha ([10]; pre-emergence, Preemergence): 65% | pest or weed control at 31 g/ha ([10]; pre-emergence, Preemergence): 75% | pest or weed control at 62 g/ha ([10]; pre-emergence, Preemergence): 100% | pest or weed control at 125 g/ha ([10]; pre-emergence, Preemergence): 100%
